According to the supplement of paper PMC11451515:

Tested on: P12-Ichikawa
Experiment: cell viability relative to DMSO control; higher = less cytotoxic
Details: 48 h
How it was run: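 In 1536-well plates, 5 μl of leukemia cells were seeded per well: 500 cells/well for NOMO1 or SEM and 1000 cells/well for P12-Ichikawa. Each line had first been adapted for at least four passages in each medium. Library compounds in DMSO were pin-dosed at 11 threefold concentrations between 47 μM and 0.79 nM, and CellTiter-Glo One luminescence was read after 48 h at 37°C. Viability is a per-plate percentage relative to DMSO wells, with cell-free wells as background.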

[1] = HPLM + 10% dialyzed FBS, 0.000781 µM
[2] = HPLM + 10% dialyzed FBS, 0.00234 µM
[3] = HPLM + 10% dialyzed FBS, 0.00702 µM
[4] = HPLM + 10% dialyzed FBS, 0.0211 µM
[5] = HPLM + 10% dialyzed FBS, 0.0632 µM
[6] = HPLM + 10% dialyzed FBS, 0.19 µM
[7] = HPLM + 10% dialyzed FBS, 0.569 µM
[8] = HPLM + 10% dialyzed FBS, 1.71 µM
[9] = HPLM + 10% dialyzed FBS, 5.12 µM
[10] = HPLM + 10% dialyzed FBS, 15.4 µM
[11] = HPLM + 10% dialyzed FBS, 46.1 µM
[12] = RPMI 5 mM glucose + 10% FBS, 0.000781 µM
[13] = RPMI 5 mM glucose + 10% FBS, 0.00234 µM
[14] = RPMI 5 mM glucose + 10% FBS, 0.00702 µM
[15] = RPMI 5 mM glucose + 10% FBS, 0.0211 µM
[16] = RPMI 5 mM glucose + 10% FBS, 0.0632 µM
[17] = RPMI 5 mM glucose + 10% FBS, 0.19 µM
[18] = RPMI 5 mM glucose + 10% FBS, 0.569 µM
[19] = RPMI 5 mM glucose + 10% FBS, 1.71 µM
[20] = RPMI 5 mM glucose + 10% FBS, 5.12 µM
[21] = RPMI 5 mM glucose + 10% FBS, 15.4 µM
[22] = RPMI 5 mM glucose + 10% FBS, 46.1 µM
[23] = RPMI 5 mM glucose + 10% dialyzed FBS, 0.000781 µM
[24] = RPMI 5 mM glucose + 10% dialyzed FBS, 0.00234 µM
[25] = RPMI 5 mM glucose + 10% dialyzed FBS, 0.00702 µM
[26] = RPMI 5 mM glucose + 10% dialyzed FBS, 0.0211 µM
[27] = RPMI 5 mM glucose + 10% dialyzed FBS, 0.0632 µM
[28] = RPMI 5 mM glucose + 10% dialyzed FBS, 0.19 µM
[29] = RPMI 5 mM glucose + 10% dialyzed FBS, 0.569 µM
[30] = RPMI 5 mM glucose + 10% dialyzed FBS, 1.71 µM
[31] = RPMI 5 mM glucose + 10% dialyzed FBS, 5.12 µM
[32] = RPMI 5 mM glucose + 10% dialyzed FBS, 15.4 µM
[33] = RPMI 5 mM glucose + 10% dialyzed FBS, 46.1 µM

SMILES	cell viability [1] [%]	cell viability [2] [%]	cell viability [3] [%]	cell viability [4] [%]	cell viability [5] [%]	cell viability [6] [%]	cell viability [7] [%]	cell viability [8] [%]	cell viability [9] [%]	cell viability [10] [%]	cell viability [11] [%]	cell viability [12] [%]	cell viability [13] [%]	cell viability [14] [%]	cell viability [15] [%]	cell viability [16] [%]	cell viability [17] [%]	cell viability [18] [%]	cell viability [19] [%]	cell viability [20] [%]	cell viability [21] [%]	cell viability [22] [%]	cell viability [23] [%]	cell viability [24] [%]	cell viability [25] [%]	cell viability [26] [%]	cell viability [27] [%]	cell viability [28] [%]	cell viability [29] [%]	cell viability [30] [%]	cell viability [31] [%]	cell viability [32] [%]	cell viability [33] [%]
CC(C)c1c(C(=O)Nc2ccccc2)c(-c2ccccc2)c(-c2ccc(F)cc2)n1CC[C@@H](O)C[C@@H](O)CC(=O)[O-]	101	102	106	99.4	98.6	97.4	106	91.2	85.7	85.2	47.2	97.5	92.6	99.6	94.7	97.1	87.9	93.3	87.6	68.4	56.3	23.2	97.4	91.9	91.2	92	95.7	90.5	89.5	83.8	85.1	67.6	36.3
O=C1N\C=N/C2=C1C=N[NH]2	83.8	89.6	83.5	92.1	83.9	93.2	91.1	87.6	72.4	77.8	25.4	83.9	91.4	84	87.9	80.6	81.7	82.8	79.1	84.2	84.4	67.3	81.7	86.2	79.1	88.7	78.7	79.3	90.5	85.2	87.1	85.2	68
Cc1c(C(=O)c2cccc3ccccc23)c2cccc3c2n1[C@H](CN1CCOCC1)CO3	98.5	93.4	93.5	97	89.5	90.2	91.4	91.9	80.8	82	26.2	83.1	76.7	81.9	78.4	87.8	77.5	80.1	84.5	76.3	74.7	12.9	86	92.5	85.4	82.6	94.2	86.9	90.2	84.6	81	78.6	28.5
CN1CCC(CC1)=C2C3=C(C=CC=C3)\C=C/C4=C2C=CC=C4	106	125	117	130	122	122	126	133	128	118	108																						
CCc1cc(-c2n[nH]c(C)c2-c2ccc3c(c2)OCCO3)c(O)cc1O	115	133	119	132	132	135	131	135	131	96.7	74.7																						
CCN(CC)CCCC(C)Nc1nc(C)cc(Nc2ccc3nc(C)cc(N)c3c2)n1 (stereo not given)	101	107	109	117	122	122	126	115	130	114	118	108	109	104	121	117	126	124	112	129	107	112	107	113	111	120	117	123	126	124	126	118	101
Cc1cnc(Nc2ccc(CN3CCOCC3)cc2)nc1Nc1cccc([S+](=O)([O-])NC(C)(C)C)c1	80	81.1	81.2	82.7	89.1	80.3	83.6	77.3	9.27	3.06	1.03	81.2	83.3	83.8	84.9	87.7	74.2	67.9	76.2	22.9	5.69	3.76	69.9	84.2	74.6	81.3	81	72.6	75	71.6	31.2	6.47	5.08
C1CN\2C[C@@H](\N=C2S1)C3=CC=CC=C3	94.4	105	99.8	104	108	106	107	108	103	108	111	96.3	105	96	93.4	98.7		102	106	99.8	103	105	87	93.9	90.1	94.4	101	102	92.7	98.3	101	96.8	90.8
COc1cc(Cl)cn2c(-c3cccc(NC4CNC4)n3)cnc12	125	121	131	125	129	130	131	135	129	127	139																						
